Legend:
Type in all cases: cell-based
[1] = system: human keratinocytes; test: Transglutaminase (TG-1) assay in keratinocytes
Protocol: Normal human keratinocytes, isolated from neonatal foreskin by trypsin treatment, were grown in Dulbecco's Modified Eagles Medium (DMEM, Life Technologies. Grand Island, New York) with 10% fetal bovine serum in the 10 presence of irradiated mouse fibroblasts for establishing dividing keratinocyte colonies. Cells were incubated until their second passage and stored at −70 ° C. for future use. All incubations took place at 37 ° C. with 5% CO2. Frozen second passage keratinocytes were thawed and plated in T−175 flasks (Corning. Corning, N.Y.) with DMEM and grown for five days. After reaching 80% confluence, they were trypsinized and seeded into 6-well plates containing keratinocyte growth medium (KGM, Clonetics, San Diego, Calif.) with 0.15 mM calcium. Keratinocytes were placed in KGM (2 ml per well) at 0.2 million cells/plate in 6-well plates and grown for four or five days until the cells reached approximately 20% confluence. […] One set of triplicate wells was left untreated to serve as control. After three days of incubation, cells were washed thoroughly with phosphate buffered saline (PBS, 10 mM sodium phosphate, 138 mM sodium choride, 2.7 mM potassium chloride, pH 7.4) and placed at −70 °C. for 2 hours. Cells were then thawed for two hours. The DNA content of cells was quantified by using the DNA-binding fluorophore, bis-benzimidazole (Hoechst 33258) and measuring the specific fluoroescence of the DNA-bound fluorophore (360 nm excitation, 450 nm emission). Cellular TG-1 levels were determined by using a transglutaminase-1 (TG-1) specific monoclonal antibody as the primary antibody (BC1, Amersham, UK) and a peroxidase labeled rabbit antimouse IgG as the secondary antibody (Amersham, UK). The plates were blocked at room temperature with 5% nonfat milk in Tris-buffered saline (TBS, 10 mM Tris, 150 mM NaCL, pH 8.0) for one hour followed by two hours incubation with the primary antibody (1:4000 dilution) in 1% milk/TBS at room temperature. After rinsing the plates three times with 1% milk/TDS containing […] Tween 20 (Bio-Rad, Hercules, Calif.), the plates were incubated with a 1:4000 dilution of the secondary antibody at room temperature for two hours. The plates were then rinsed three times with 1% milk/0.05% Tween 20/TBS and three times with PBS. Color was developed by incubation with o-phenylene-diamine (Sigma, St. Louis. Mo.) and hydrogen peroxide (Sigma) dissolved in a 1:1 mixture of 0.2 M dibasic sodium phosphate (Sigma) and 0.1 M citric acid at pH 5.0(Sigma). Solutions were transferred to 4 ml plastic cuvets (Fisher Scientific, Pittsburgh Pa.) and the absorbance was read at 492 nm on an Ultraspec 3000 spectrophotometer (Pharmacia, Piscataway N.J.) and TG-1 levels were expressed as absorbence/DNA fluorescence. Concentrations used in the examples below are of cumic alcohol in a corn oil droplet. The in vitro concentration may not be relevant to in vivo concentration because there is partitioning between oil and culture medium and the medium concentration of the active is not The oil droplet concentration of the active. For the cumic alcohol to elicit its effect on the cultured cells, it must diffuse out of the corn oil into the culture medium where it is then accessible to the cells. The cumic alcohol concentration in the culture medium is therefore considerably less than the concentration in the corn oil droplet.

[2] = system: human keratinocytes; test: Ascorbate uptake assay (14C-ascorbic acid) in keratinocytes
Protocol: Normal human keratinocytes, isolated from neonatal foreskin by trypsin treatment, were grown in Dulbecco's Modified Eagles Medium (DMEM, Life Technologies. Grand Island, New York) with 10% fetal bovine serum in the 10 presence of irradiated mouse fibroblasts for establishing dividing keratinocyte colonies. Cells were incubated until their second passage and stored at -70 ° C. for future use. All incubations took place at 37 ° C. with 5% CO2. Frozen second passage keratinocytes were thawed and plated in T-175 flasks (Corning. Corning, N.Y.) with DMEM and grown for five days. After reaching 80% confluence, they were trypsinized and seeded into 6-well plates containing keratinocyte growth medium (KGM, Clonetics, San Diego, Calif.) with 0.15 mM calcium. For this experiment, third passage keratinocytes were plated into a KGM medium (Clonetics, Calif.) containing 0.15 mM calcium. […] Cells were then switched into fresh KBM and were treated with 5% cumic alcohol administered in corn oil (dosed 10 μl corn oil+active at indicated concentration/2 ml media). After 4 hours of incubation, 0.1 μCi/ml of L-^14C-1-ascorbic acid (Amersham, UK) and 50 units of ascorbic oxidase (Sigma) were added to each well and further incubated for 1 hour. The medium was aspirated and wells were rinsed 3 times with PBS before addition of 500 μl of 0.1N NaOH/well. After 10 minutes of agitation on shaker, 25 μL aliquot was removed for protein analysis, and 200 μl were transferred to scintillation vials containing 5 ml of […]. The counting was performed on a Beckman counter (model LS 5801). Ascorbic acid uptake results were expressed as CPM /μg protein. Concentrations used in the examples below are of cumic alcohol in a corn oil droplet. The in vitro concentration may not be relevant to in vivo concentration because there is partitioning between oil and culture medium and the medium concentration of the active is not The oil droplet concentration of the active. […]

[3] = system: human keratinocytes; test: Glucose uptake assay (3H 2-deoxy-glucose) in keratinocytes
Protocol: Normal human keratinocytes, isolated from neonatal foreskin by trypsin treatment, were grown in Dulbecco's Modified Eagles Medium (DMEM, Life Technologies. Grand Island, New York) with 10% fetal bovine serum in the 10 presence of irradiated mouse fibroblasts for establishing dividing keratinocyte colonies. Cells were incubated until their second passage and stored at −70 ° C. for future use. All incubations took place at 37 ° C. with 5% CO2. Frozen second passage keratinocytes were thawed and plated in T−175 flasks (Corning. Corning, N.Y.) with DMEM and grown for five days. After reaching 80% confluence, they were trypsinized and seeded into 6-well plates containing keratinocyte growth medium (KGM, Clonetics, San Diego, Calif.) with 0.15 mM calcium. Keratinocytes were plated in KGM medium at either 0.5 or 1 million cells/plate in six well plates and incuoated for 4 days. The medium was then aspirated, and the wells were rinsed twice with Phosphate Buffered Saline (PBS), then the plates were incubated (1 mL/well) for 24 hours. The medium was replaced with fresh KBM, 10 ul of corn oil containing cumic alcohol at various concentrations were added and cells were allowed to incubate (for 4 hours at 37C) before 2 μCi of ^3H 2-deoxy-glucose (Amersham, UK) were added to each well. Samples were then incubated for one hour. The medium was aspirated and wells were rinsed three times with PBS before the addition of 500 μL of 0.1N NaOH/well. After 10 minutes of agitation on a shaker, a 25 μL aliquot was removed for protein analysis, and 200 μL were transferred to a scintillation vial containing 5mL Scintillation cocktail (Scintiverse) and counting was performed on a Beckman counter, ^3H-Glucose uptake results were expressed as CPM/μg protein. Concentrations used in the examples below are of cumic alcohol in a corn oil droplet. The in vitro concentration may not be relevant to in vivo concentration because there is partitioning between oil and culture medium and the medium concentration of the active is not The oil droplet concentration of the active. For the cumic alcohol to elicit its effect on the cultured cells, it must diffuse out of the corn oil into the culture medium where it is then accessible to the cells. The cumic alcohol concentration in the culture medium is therefore considerably less than the concentration in the corn oil droplet.

[4] = system: human keratinocytes; test: Lipid analysis (ceramides, TLC densitometry) in keratinocytes
[5] = Example 2, Experiment 1, cumic alcohol 2.5% in corn oil
[6] = Example 2, Experiment 1, cumic alcohol 5% in corn oil
[7] = Example 2, Experiment 2, cumic alcohol 2.5% in corn oil
[8] = Example 2, cumic alcohol at 2.5 and 5%
[9] = Example 4, inactivity at lower concentrations

CC(C)c1ccc(CO)cc1 [CUMIC ALCOHOL, p-isopropylbenzyl alcohol]
TG-1 % of CONTROL [1, 5]: 117%
TG-1 % of CONTROL [1, 6]: 180%
TG-1 % of CONTROL [1, 7]: 145%
expression of transglutaminase-1 in comparison to untreated control cells (in words) [1, 8]: increased expression
TG-1 % of CONTROL ([1]; Example 4, cumic alcohol 1% in corn oil): 127%
TG-1 % of CONTROL ([1]; Example 4, cumic alcohol 2.5% in corn oil): 174%
TG-1 % of CONTROL ([1]; Example 4, cumic alcohol 5% in corn oil): 205%
transglutaminase-1 expression (in words) [1, 9]: significant increase
ascorbate uptake % of CONTROL ([2]; cumic alcohol 5% in corn oil): 129%
ascorbate uptake CPM/WELL ([2]; cumic alcohol 5% in corn oil (10 ul/2 ml media), 4 h preincubation, 1 h uptake): 17235 +− CPM/WELL
uptake of ascorbate in comparison to untreated control cells (in words) ([2]; cumic alcohol at 5% in corn oil): significantly increased uptake
glucose uptake % OF CONTROL ([3]; cumic alcohol 1% in corn oil droplet): 107%
glucose uptake % OF CONTROL ([3]; cumic alcohol 2.5% in corn oil droplet): 185%
glucose uptake % OF CONTROL ([3]; cumic alcohol 5% in corn oil droplet): 206%
glucose uptake CPM/ug PROTEIN ([3]; cumic alcohol 5% in corn oil droplet (10 ul), 4 h preincubation, 1 h uptake): 40.67 CPM/ug PROTEIN
ceramides % of CONTROL [4, 5]: 67%
ceramides % of CONTROL [4, 6]: 156%
ceramides % of CONTROL [4, 7]: 166%
ceramides % of CONTROL ([4]; Example 2, Experiment 2, cumic alcohol 5% in corn oil): 185%
expression of ceramides in comparison to untreated control cells (in words) [4, 8]: increased expression
ceramide production (in words) [4, 9]: significant increase

Reference: US6375961B1, “Cosmetic skin care compositions containing cumic alcohol” (Unilever Home & Personal Care (USA), division of Conopoco, …, priority 1999, dated 2002)
